Earlier results on 11 molecules are cited in patent publication US12600787B2, “Methods for the treatment of thyroid eye disease” (Horizon Therapeutics Ireland DAC, priority 2019, dated 2026).

The conditions of data set [1]: cited from earlier work.
Data set [2] has as its target c-erbB2/HER2/neu receptor (Homo sapiens, UniProt P04626). The note with it: cited from earlier work.
Data set [3] has as its target IGF-1 R (Homo sapiens, UniProt P08069). The following applies: cited from earlier work.
The subject of data set [4] is susceptible tumor cell populations. The following applies: cited from earlier work.
Data set [5] deals with IGF-1 R-overexpressing tumor cells. The note with it: cited from earlier work.
The test system of data set [6] is moderate-to-severe active TED. The note with it: cited from earlier work.
For data set [7] the following is noted: cited from earlier work. The source holds these as a separate data set.
Data set [8] deals with tumors. The note with it: in vivo; cited from earlier work.
The subject of data set [9] is neuroblastoma. The note with it: by overcoming crizotinib resistance and inducing apoptosis; cited from earlier work.
In data set [10] the target is ALK (Homo sapiens, UniProt Q9UM73). The following applies: cited from earlier work.
Sequence of ALK (Q9UM73 19-1620, species assumed): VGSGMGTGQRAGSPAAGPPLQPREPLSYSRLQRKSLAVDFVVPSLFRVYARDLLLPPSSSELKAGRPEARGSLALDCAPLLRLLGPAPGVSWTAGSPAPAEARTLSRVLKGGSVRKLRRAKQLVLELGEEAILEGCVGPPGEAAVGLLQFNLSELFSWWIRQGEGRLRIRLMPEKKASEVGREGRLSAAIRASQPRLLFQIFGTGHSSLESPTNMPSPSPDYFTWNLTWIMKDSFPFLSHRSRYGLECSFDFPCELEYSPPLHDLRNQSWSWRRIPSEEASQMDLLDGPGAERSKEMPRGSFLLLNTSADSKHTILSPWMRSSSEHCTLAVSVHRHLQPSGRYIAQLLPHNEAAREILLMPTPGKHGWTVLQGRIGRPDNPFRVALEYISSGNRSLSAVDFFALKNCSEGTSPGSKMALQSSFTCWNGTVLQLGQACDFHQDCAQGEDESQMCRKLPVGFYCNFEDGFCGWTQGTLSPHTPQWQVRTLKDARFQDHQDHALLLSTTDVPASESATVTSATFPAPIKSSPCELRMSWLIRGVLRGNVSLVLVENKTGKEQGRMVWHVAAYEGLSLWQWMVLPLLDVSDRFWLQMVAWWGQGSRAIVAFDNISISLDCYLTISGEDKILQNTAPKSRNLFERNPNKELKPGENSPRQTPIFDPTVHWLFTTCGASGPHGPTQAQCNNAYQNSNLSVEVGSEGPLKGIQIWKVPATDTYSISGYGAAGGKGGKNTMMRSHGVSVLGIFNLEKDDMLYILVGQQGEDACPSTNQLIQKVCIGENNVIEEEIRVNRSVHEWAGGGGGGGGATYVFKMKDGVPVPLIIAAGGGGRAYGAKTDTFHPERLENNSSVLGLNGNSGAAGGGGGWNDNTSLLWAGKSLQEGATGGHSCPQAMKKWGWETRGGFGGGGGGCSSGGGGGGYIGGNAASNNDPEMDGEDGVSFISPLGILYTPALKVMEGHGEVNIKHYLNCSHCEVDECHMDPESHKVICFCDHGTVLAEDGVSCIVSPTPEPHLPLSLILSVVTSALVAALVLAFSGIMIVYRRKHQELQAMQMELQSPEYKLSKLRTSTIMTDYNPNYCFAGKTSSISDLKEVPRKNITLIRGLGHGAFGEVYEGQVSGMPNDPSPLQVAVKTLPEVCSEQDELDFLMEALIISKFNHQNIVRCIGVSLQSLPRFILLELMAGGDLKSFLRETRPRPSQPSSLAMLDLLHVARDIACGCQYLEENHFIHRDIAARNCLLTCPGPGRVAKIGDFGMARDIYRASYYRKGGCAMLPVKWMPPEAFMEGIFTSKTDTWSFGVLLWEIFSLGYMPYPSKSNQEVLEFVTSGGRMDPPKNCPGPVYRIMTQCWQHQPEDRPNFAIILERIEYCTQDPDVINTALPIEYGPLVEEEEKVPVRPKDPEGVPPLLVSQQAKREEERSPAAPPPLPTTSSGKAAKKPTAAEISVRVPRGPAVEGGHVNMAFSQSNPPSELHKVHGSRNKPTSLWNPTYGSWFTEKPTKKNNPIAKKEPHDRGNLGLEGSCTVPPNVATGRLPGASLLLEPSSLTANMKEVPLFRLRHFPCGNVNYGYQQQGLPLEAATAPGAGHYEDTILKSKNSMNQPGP
The test system of data set [11] is TED (GO). The following applies: cited from earlier work.
Data set [12] relates to intracellular IGF-IR phosphorylation. The following applies: cited from earlier work.
Data set [13] concerns the target IGF-IR (purified enzyme) (Homo sapiens, UniProt P08069). The following applies: cited from earlier work.

Like-named read-outs stand apart in the source and are kept apart here.

Sequence of IGF-1 R (P08069 31-1367): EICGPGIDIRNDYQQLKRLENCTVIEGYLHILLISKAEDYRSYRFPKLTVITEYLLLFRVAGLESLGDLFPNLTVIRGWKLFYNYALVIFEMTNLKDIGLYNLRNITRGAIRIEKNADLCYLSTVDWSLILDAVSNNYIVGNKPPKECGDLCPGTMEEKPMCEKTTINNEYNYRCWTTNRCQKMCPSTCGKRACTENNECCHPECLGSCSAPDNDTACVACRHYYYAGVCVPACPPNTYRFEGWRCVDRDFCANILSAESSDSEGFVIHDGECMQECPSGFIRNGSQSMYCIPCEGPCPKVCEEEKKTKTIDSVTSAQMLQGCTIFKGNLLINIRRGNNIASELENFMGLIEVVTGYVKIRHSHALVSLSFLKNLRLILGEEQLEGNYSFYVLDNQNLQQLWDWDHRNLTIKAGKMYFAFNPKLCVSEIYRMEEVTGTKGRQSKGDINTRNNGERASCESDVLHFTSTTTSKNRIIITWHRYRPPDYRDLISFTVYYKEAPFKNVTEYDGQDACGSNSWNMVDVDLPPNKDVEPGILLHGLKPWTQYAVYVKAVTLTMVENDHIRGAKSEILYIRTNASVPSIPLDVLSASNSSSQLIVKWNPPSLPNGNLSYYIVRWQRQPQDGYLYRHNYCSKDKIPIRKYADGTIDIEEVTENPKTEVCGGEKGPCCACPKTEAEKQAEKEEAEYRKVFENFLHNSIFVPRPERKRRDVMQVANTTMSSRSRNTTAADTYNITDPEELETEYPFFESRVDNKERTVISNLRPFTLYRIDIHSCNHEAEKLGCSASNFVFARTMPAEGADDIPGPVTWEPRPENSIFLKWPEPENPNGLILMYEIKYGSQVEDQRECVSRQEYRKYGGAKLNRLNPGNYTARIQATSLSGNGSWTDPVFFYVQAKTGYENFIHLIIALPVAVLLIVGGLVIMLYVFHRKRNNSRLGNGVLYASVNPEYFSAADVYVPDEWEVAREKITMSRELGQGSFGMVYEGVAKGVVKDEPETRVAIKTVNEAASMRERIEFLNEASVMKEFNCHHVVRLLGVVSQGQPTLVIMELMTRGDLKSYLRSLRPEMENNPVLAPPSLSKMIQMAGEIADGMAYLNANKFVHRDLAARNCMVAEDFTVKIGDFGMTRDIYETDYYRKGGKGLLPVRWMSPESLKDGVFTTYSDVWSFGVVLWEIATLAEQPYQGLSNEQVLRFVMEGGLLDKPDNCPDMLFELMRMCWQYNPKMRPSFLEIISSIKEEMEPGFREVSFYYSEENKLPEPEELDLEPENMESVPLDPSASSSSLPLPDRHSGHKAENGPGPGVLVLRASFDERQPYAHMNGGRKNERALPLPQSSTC
Sequence of IGF-IR (purified enzyme) (P08069 31-1367): as above
Sequence of c-erbB2/HER2/neu receptor (P04626 23-1255): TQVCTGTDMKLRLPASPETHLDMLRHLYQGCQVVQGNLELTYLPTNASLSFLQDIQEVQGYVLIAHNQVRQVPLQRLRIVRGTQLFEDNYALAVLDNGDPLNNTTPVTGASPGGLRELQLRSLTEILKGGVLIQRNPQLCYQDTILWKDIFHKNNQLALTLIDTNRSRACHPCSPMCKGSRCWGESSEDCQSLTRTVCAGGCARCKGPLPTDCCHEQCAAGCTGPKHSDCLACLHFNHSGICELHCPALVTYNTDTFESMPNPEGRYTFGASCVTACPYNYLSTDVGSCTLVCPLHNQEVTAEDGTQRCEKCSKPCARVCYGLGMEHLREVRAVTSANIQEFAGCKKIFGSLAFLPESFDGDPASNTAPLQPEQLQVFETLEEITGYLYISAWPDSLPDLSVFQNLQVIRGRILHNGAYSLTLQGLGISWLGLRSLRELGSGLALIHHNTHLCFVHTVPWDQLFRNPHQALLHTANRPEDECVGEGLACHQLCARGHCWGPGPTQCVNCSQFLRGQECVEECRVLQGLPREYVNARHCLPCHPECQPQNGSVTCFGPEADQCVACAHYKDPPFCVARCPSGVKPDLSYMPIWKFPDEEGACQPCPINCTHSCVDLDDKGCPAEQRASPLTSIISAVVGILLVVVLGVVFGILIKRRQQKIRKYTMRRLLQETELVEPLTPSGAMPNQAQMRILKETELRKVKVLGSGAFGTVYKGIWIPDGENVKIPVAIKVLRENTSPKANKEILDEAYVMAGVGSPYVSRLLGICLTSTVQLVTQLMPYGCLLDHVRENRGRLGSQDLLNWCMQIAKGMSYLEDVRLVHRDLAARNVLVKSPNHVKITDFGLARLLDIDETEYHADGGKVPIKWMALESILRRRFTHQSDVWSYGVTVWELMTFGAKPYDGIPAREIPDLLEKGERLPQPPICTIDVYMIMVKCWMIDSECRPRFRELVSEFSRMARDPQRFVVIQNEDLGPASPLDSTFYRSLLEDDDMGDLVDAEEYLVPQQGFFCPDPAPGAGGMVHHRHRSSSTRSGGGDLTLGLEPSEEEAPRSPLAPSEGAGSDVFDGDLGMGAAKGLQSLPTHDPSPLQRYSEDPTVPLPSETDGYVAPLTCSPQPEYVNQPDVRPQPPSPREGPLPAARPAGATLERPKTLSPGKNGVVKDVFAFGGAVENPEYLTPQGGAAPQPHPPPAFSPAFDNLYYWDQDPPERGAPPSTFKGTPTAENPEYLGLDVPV

`C[C@]1(O)C[C@@H](c2nc(-c3ccc4ccc(-c5ccccc5)nc4c3)c3c(N)nccn32)C1` [Linsitinib]: in data set [1] (oral), the T1/2 result was “oral; 2-4 hrs”.
For the molecule `C[C@H](Cc1ccc(O)c(O)c1)[C@@H](C)Cc1ccc(O)c(O)c1` [INSM-18, nordihydroguaiaretic acid], in data set [2], the “inhibition of activation of c-erbB2/HER2/neu receptor” value is “directly inhibits activation”. Moreover, the IGF-1R inhibition entry in data set [3] is given as “directly inhibits activation”. Moreover, in [4], the “proliferation of tumor cells” value is on record as “decreased proliferation”.
Consider `CCOC(=O)N1CCC(Nc2cc(Cl)cc3c(S(=O)(=O)N4CCO[C@H](COc5ccccc5)C4)c(C(N)=O)[nH]c23)CC1` [PL-225B], for which the T1/2 entry in data set [1] (oral) was “Oral; 21d”. Moreover, in data set [5], the tumor cell apoptosis entry is given as “induction of tumor cell apoptosis” and the tumor cell proliferation result is on record as “inhibition of tumor cell proliferation”. In addition, the IGF-1R inhibition entry in data set [3] is listed as “selectively inhibits”.
Consider “rituximab: a CD20+ B cell-depleting agent”, for which the “trial result versus placebo” value in data set [6] (first monocenter RCT, 2015) is listed as “negative (no differences with placebo)”. The “reduction in proptosis compared with ivGCs” value in data set [6] (results using rituximab versus ivGC RCT) is reported as “not different”. Further, the “trial result versus ivGCs” value in [6] (second monocenter RCT, 2015) is “positive (beneficial effects comparable to ivGCs)”.
On to “Dalotuzumab: IGF-1R inhibitor antibody, HC SEQ ID NO:7, LC SEQ ID NO:8”, for which the T1/2 entry in data set [1] (in vivo) was “IV; 5 days”.
Take “Cixutumumab: IGF-1R inhibitor antibody, HC SEQ ID NO:55, LC SEQ ID NO:56”: in data set [1] (IV), the T1/2 result is listed as “IV; 5 days”.
As to `COCCN1CCN(CCn2ccc(Nc3ncc4c(n3)[C@@H](C)Cc3nn(C)c(-c5ccccc5)c3-4)n2)CC1` [BI885578], the in vivo half-life result in data set [7] is “short in vivo half-life”. Moreover, in data set [7] (in vivo), the intestinal absorption result was “rapid intestinal absorption” and the metabolic clearance result is recorded as “rapid metabolic clearance”. The “cell proliferation and apoptosis in tumors” value in data set [8] was “inhibition of cell proliferation and induction of apoptosis in tumors”.
Turning to `COc1cc(N2CCC(N)CC2)ccc1Nc1ncc(Cl)c(-c2c[nH]c3ccccc23)n1` [AZD3463], the neuroblastoma growth result in data set [9] is reported as “inhibition of neuroblastoma growth”. In addition, the ALK inhibition entry in [10] is “potent ALK/IGF-1 R inhibitor”. Further, in [3], the IGF-1R inhibition entry is reported as “potent ALK/IGF-1 R inhibitor”.
Turning to “teprotumumab: fully human IGF-IR-inhibitory monoclonal antibody approved for the treatment of TED”, the T1/2 result in data set [1] (IV) is reported as “IV; 8 days”. Besides, the “efficacy in the treatment of TED” value in data set [11] (in vivo) is “effective”. The “average decrease in exophthalmos” value in [11] (vs. 0.15 mm in the placebo group) was 2.46 mm.
With `Nc1ncnc2c1c(-c1ccc3[nH]c(Cc4ccccc4Cl)nc3c1)nn2[C@H]1CC[C@H](N2CCOCC2)CC1` [Example A-928605], in data set [12], the “inhibition of IGF-IR phosphorylation” value is recorded as “potent inhibitor”. Moreover, the “inhibition of IGF-IR” value in data set [13] is “potent inhibitor”.

B1: Figitumumab: IGF-1R inhibitor antibody, HC SEQ ID NO:39, LC SEQ ID NO:40 (antibody)
heavy: EVQLLESGGGLVQPGGSLRLSCTASGFTFSSYAMNWVRQAPGKGLEWVSAISGSGGTTFYADSVKGRFTISRDNSRTTLYLQMNSLRAEDTAVYYCAKDLGWSDSYYYYYGMDVWGQGTTVTVSSASTKGPSVFPLAPCSRSTSESTAALGCLVKDYFPEPVTVSWNSGALTSGVHTFPAVLQSSGLYSLSSVVTVPSSNFGTQTYTCNVDHKPSNTKVDKTVERKCCVECPPCPAPPVAGPSVFLFPPKPKDTLMISRTPEVTCVVVDVSHEDPEVQFNWYVDGVEVHNAKTKPREEQFNSTFRVVSVLTVVHQDWLNGKEYKCKVSNKGLPAPIEKTISKTKGQPREPQVYTLPPSREEMTKNQVSLTCLVKGFYPSDIAVEWESNGQPENNYKTTPPMLDSDGSFFLYSKLTVDKSRWQQGNVFSCSVMHEALHNHYTQKSLSLSPGK
light: DIQMTQFPSSLSASVGDRVTITCRASQGIRNDLGWYQQKPGKAPKRLIYAASRLHRGVPSRFSGSGSGTEFTLTISSLQPEDFATYYCLQHNSYPCSFGQGTKLEIKRTVAAPSVFIFPPSDEQLKSGTASVVCLLNNFYPREAKVQWKVDNALQSGNSQESVTEQDSKDSTYSLSSTLTLSKADYEKHKVYACEVTHQGLSSPVTKSFNRGEC
modifications: Heavy Chain of Figitumumab; Light Chain of Figitumumab
Regarding B1, the T1/2 result in data set [1] (IV) is “IV; 20 days”.
